Laboratory results from the supplement of paper PMC10307832.

Experiments:
Test in all cases: relative viability (nuclei count vs DMSO), 5 days (fraction); higher = more cells survive
[1] = compound: NCC(=O)Nc1ccc(-n2nc(C(F)(F)F)cc2-c2ccc3c(ccc4ccccc43)c2)cc1 + CS(=O)(=O)CCNCc1ccc(-c2ccc3ncnc(Nc4ccc(OCc5cccc(F)c5)c(Cl)c4)c3c2)o1 [Lapatinib] (partner 2 µM)
In short: (§1)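 Lung cancer cell lines, seeded in 1536-well plates, were treated the following day by pin tool with a single drug or with five library-drug doses (not always all listed) in √10 steps on top of a fixed anchor-drug dose. Cells were fixed and nuclei stained in one step after 5 days, and nuclei were counted. Relative viability is the nuclei count for treated wells divided by that for vehicle wells, reported as medians of duplicate plates.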

[2] = compound: C1CSC2=C(C(=O)N1)SC3=C2C=C(C=C3)O [kb NB 142-70] + Cc1cc(Nc2cc(N3CCN(C)CC3)nc(Sc3ccc(NC(=O)C4CC4)cc3)n2)n[nH]1 [Tozasertib] (partner 0.1 µM)
In short: as §1

[3] = compound: C1CSC2=C(C(=O)N1)SC3=C2C=C(C=C3)O [kb NB 142-70] + Nc1ncn([C@H]2C[C@H](O)[C@@H](CO)O2)c(=O)n1 [Decitabine] (partner 2 µM)
In short: as §1

[4] = compound: NCC(=O)Nc1ccc(-n2nc(C(F)(F)F)cc2-c2ccc3c(ccc4ccccc43)c2)cc1 + CC(C)C[C@H](NC(=O)[C@H](Cc1ccccc1)NC(=O)c1cnccn1)B(O)O [Bortezomib] (partner 0.002 µM)
In short: as §1

[5] = compound: C1CSC2=C(C(=O)N1)SC3=C2C=C(C=C3)O [kb NB 142-70] + N=C(N)NC(=N)NCCc1ccccc1 [Phenformin] (partner 250 µM)
In short: as §1

Row | Cell Line | relative viability ([1]; first compound 0.02 µM) | relative viability ([1]; first compound 0.06325 µM) | relative viability ([1]; first compound 0.2 µM) | relative viability ([1]; first compound 0.6325 µM) | relative viability ([1]; first compound 2 µM) | relative viability ([2]; first compound 0.1 µM) | relative viability ([2]; first compound 1 µM) | relative viability ([2]; first compound 3.162 µM) | relative viability ([3]; first compound 0.1 µM) | relative viability ([3]; first compound 1 µM) | relative viability ([3]; first compound 3.162 µM) | relative viability ([4]; first compound 0.02 µM) | relative viability ([4]; first compound 0.06325 µM) | relative viability ([4]; first compound 0.2 µM) | relative viability ([4]; first compound 0.6325 µM) | relative viability ([4]; first compound 2 µM) | relative viability ([5]; first compound 0.1 µM) | relative viability ([5]; first compound 1 µM) | relative viability ([5]; first compound 3.162 µM)
1 | LC-2-ad | 0.967 | 0.932 | 1.02 | 0.96 | 1.06 | 0.451 | 0.428 | 0.341 | 0.798 | 0.769 | 0.772 | 1.1 | 1.03 | 0.997 | 0.912 | 1.12 | 0.618 | 0.536 | 0.458
2 | LCLC-97TM1 | 0.816 | 1.13 | – | 0.981 | 0.893 | 0.197 | 0.207 | 0.149 | 0.268 | 0.205 | 0.135 | 0.814 | 0.75 | 0.35 | 0.538 | 0.539 | 0.407 | 0.462 | 0.416
3 | LOU-NH91 | 0.848 | 0.678 | 0.781 | 0.797 | 0.767 | 0.599 | 0.557 | 0.338 | 0.83 | 0.854 | 0.61 | 0.485 | 0.523 | 0.485 | 0.511 | 0.484 | 0.615 | 0.741 | 0.632
4 | LU99A | 0.943 | 1.13 | 1.07 | 0.987 | 0.944 | 0.285 | 0.237 | 0.195 | 1.09 | 0.9 | 0.708 | 1.14 | 1.27 | 1.06 | 1.07 | 1.1 | 0.789 | 0.666 | 0.722
5 | LXF-289 | 0.953 | 0.953 | 0.916 | 0.891 | 0.887 | 0.173 | 0.192 | 0.181 | 0.392 | 0.369 | 0.365 | 1.05 | 1.1 | 0.966 | 1.02 | 1.01 | 0.526 | 0.526 | 0.457
6 | NCI-H23 | 1.18 | 0.96 | 1.12 | 1.12 | 0.955 | 0.381 | 0.37 | 0.241 | 0.34 | 0.266 | 0.251 | 0.908 | 1.11 | 1.1 | 1.02 | 1.12 | 0.794 | 0.732 | 0.53
7 | NCI-H322M | 0.617 | 0.62 | 0.681 | 0.561 | 0.558 | 0.464 | 0.519 | 0.45 | 0.675 | 0.72 | 0.616 | 1.41 | 1.29 | 1.15 | 1.18 | 1.14 | 0.755 | 0.795 | 0.86
8 | NCI-H460 | 0.965 | 0.956 | 0.991 | 0.845 | 0.576 | 0.541 | 0.397 | 0.254 | 0.538 | 0.606 | 0.354 | 1.21 | 1.11 | 1.07 | 1.03 | 1.07 | 0.55 | 0.596 | 0.347
9 | NCI-H520 | 0.995 | 0.869 | 0.935 | 0.938 | 0.963 | 0.45 | 0.517 | 0.37 | 0.506 | 0.43 | 0.357 | 0.646 | 0.568 | 1.05 | 0.671 | 0.789 | 0.57 | 0.515 | 0.324
10 | NCI-H596 | 1.13 | 1.09 | 1.11 | 1.09 | 1.19 | 0.804 | 0.881 | 0.749 | 0.909 | 1.09 | 0.766 | 1.27 | 1.1 | 0.883 | 1.96 | 1.05 | 0.888 | 0.77 | 0.822
11 | NCI-H647 | 1.2 | 1.07 | 1.21 | 0.953 | 0.631 | 0.274 | 0.332 | 0.426 | 0.383 | 0.477 | 0.36 | 1.14 | 1.18 | 1.09 | 1.04 | 0.99 | 0.502 | 0.54 | 0.44
12 | NCI-H650 | 0.665 | 1.06 | 0.934 | 0.87 | 1.25 | 0.747 | 0.668 | 0.435 | 0.309 | 0.283 | 0.267 | 0.663 | 1.02 | 0.931 | 0.677 | 0.907 | 0.462 | 0.465 | 0.429
13 | NCI-H661 | 0.526 | 0.521 | 0.44 | 0.445 | 0.556 | 0.337 | 0.356 | 0.353 | 0.614 | 0.588 | 0.496 | 0.785 | 0.853 | 0.737 | 0.784 | 0.762 | 0.286 | 0.263 | 0.247
14 | NCI-H727 | 1.02 | 0.968 | 0.655 | 0.917 | 0.9 | 0.607 | 0.541 | 0.514 | 0.915 | 0.868 | 0.768 | 0.849 | 0.977 | 0.724 | 0.847 | 1.04 | 0.585 | 0.714 | 0.605
15 | NCI-H838 | 0.934 | 0.893 | 0.974 | 0.778 | 0.576 | 0.29 | 0.249 | 0.271 | 0.431 | 0.454 | 0.427 | 0.81 | 0.788 | 1.06 | 0.746 | 0.727 | 0.561 | 0.575 | 0.571
16 | NCI-H1355 | 1 | 1.05 | 1.08 | 0.951 | 1.05 | 0.577 | 0.542 | 0.428 | 0.39 | 0.355 | 0.342 | 1.22 | 1.28 | 1.15 | 1.19 | 1.29 | 0.485 | 0.451 | 0.453
17 | NCI-H1437 | 0.768 | 0.76 | 0.751 | 0.84 | 0.78 | 0.407 | 0.421 | 0.446 | 0.578 | 0.55 | 0.536 | 0.531 | 0.422 | 0.536 | 0.487 | 0.499 | 0.308 | 0.292 | 0.262
